Data set [1] in a line: Pharmacokinetics test in Beagle dogs (oral capsules). It counts as in vivo. To be noted: for AUClast / Cmax / Tmax: male Beagle dogs, oral capsules, 10 mg/kg. The protocol:
The salt of the compound shown in formula (I) and the free base crystal form 2 of the compound shown in formula (I) of the present invention were respectively filled with capsules for oral administration.
Male Beagle dogs of 8-12 kg were divided into 2 groups, 3 dogs in each group, and capsules containing test samples were orally administered at a dose of 10 mg/kg, and blood was collected at time points of 0.25, 0.5, 1.0, 2.0, 4.0, 6.0, 8.0 and 24 h. Standard curve was plotted based on concentrations of the samples in a suitable range, the concentration of the test sample in the plasma sample was measured and quantified by AB SCIEX API4000-type LC-MS / MS at MRM mode. Pharmacokinetic parameters were calculated according to drug concentration -time curve using a noncompartmental method by WinNonLin 6.3 software. Table 1 Pharmacokinetic experimental results data of salt and free base crystal form 2 of the present invention in Beagle dogs

Data set [2] in a line: Pharmacokinetics test in SD rats (oral gavage, PEG400 suspension). The class given is in vivo. The conditions noted are these: 200 mg/kg. As to the method: The salt of the compound shown in formula (I) and the free base crystal form 2 of the compound shown in formula (I) of the present invention were respectively prepared into a suspension using PEG400, and the male SD rats were given 200 mg/kg test samples orally by gavage, and 3 animals in each group were given. Blood was collected at time points 0.25, 0.5, 1.0, 2.0, 5.0, 7.0 and 24 h after administration. Standard curve was plotted based on concentrations of the samples in a suitable range, the concentration of the test sample in the plasma sample was measured and quantified by AB SCIEX API4000-type LC-MS / MS at MRM mode. Pharmacokinetic parameters were calculated according to drug concentration -time curve using a noncompartmental by WinNonLin 6.3 software. Table 2 Pharmacokinetic experimental results data of salt and free base crystal form 2 of the present invention in male SD rats

Data set [3] is described as follows: Long-term stability test. To be noted: for Purity: long-term, 5 °C ± 3 °C, packaged, HPLC. The class given is physicochemical. As to the method: Long-term stability test: The samples were inspected under the conditions of single-layer PE inner packaging, aluminum foil bag outer packaging, built-in KD-20 oxygen absorber, and vacuum nitrogen filling and heat sealing packaging, low temperature 5 °C ± 3 °C long-term test conditions, and the sample color was observed. The purity of the sample was determined by HPLC.

Data set [4] in a line: Stability test: high-humidity test. To be noted: for Purity: HPLC. It counts as physicochemical. The protocol: High-humidity test: The salt of the compound shown in formula (I) of the present invention was taken an appropriate amount and put into a flat weighing flask, divided into ≤ 3 mm thick thin layer. The samples were placed at 25 °C, RH 90% ± 5% and 25 °C, RH 75% ± 5% for 30 days. The samples were sampled at day 5, day 10 and day 30, and the sample color was observed. The purity of the sample was determined by HPLC.

Data set [5] in a line: Stability test: high-temperature test. The class given is physicochemical. The conditions noted are these: for Purity: HPLC. As to the method:
High-temperature test: The salt of the compound shown in formula (I) of the present invention was taken an appropriate amount and put into a flat weighing flask, divided into ≤ 3 mm thick thin layer. The samples were placed at 60 °C and 40 °C for 30 days. The samples were sampled at day 5, day 10 and day 30, and the sample color was observed. The purity of the sample was determined by HPLC.

Setting [6] is: High humidity RH75%, 25 °C, 5 days.
Where [7] appears, read: High humidity RH75%, 25 °C, 10 days.
[8] abbreviates: High humidity RH75%, 25 °C, 30 days.
Where [9] appears, read: High humidity RH90%, 25 °C, 5 days.
[10] abbreviates: High humidity RH90%, 25 °C, 10 days.
The mark [11] stands for this setting: High humidity RH90%, 25 °C, 30 days.
[12] abbreviates: in Beagle dogs, compared with free base crystal form 2.
[13] abbreviates: High temperature (40°C), 5 days.
Where [14] appears, read: High temperature (40°C), 10 days.
The mark [15] stands for this setting: High temperature (40°C), 30 days.
[16] abbreviates: High temperature (60°C), 5 days.
The mark [17] stands for this setting: High temperature (60°C), 10 days.
The mark [18] stands for this setting: High temperature (60°C), 30 days.

Experimental findings from patent EP4458825A1, “SALT OF AMINOPYRIMIDINE COMPOUND AND USE THEREOF” (Sunshine Lake Pharma Co., Ltd., priority 2021, dated 2023) are described below.

SMILES strings stand for the structures. Where a name gives a salt, the structure may show the parent alone.

By Cmax is commonly meant the peak of the concentration-time curve. The term Tmax denotes the time from dosing to the highest level. As for `Cc1noc(-c2c(N)ncnc2N[C@@H](C)c2nc3cccc(C#CCO)c3c(=O)n2-c2ccccc2)n1` [Free base crystal form 2, (S)-2-(1-((6-amino-5-(3-methyl-1,2,4-oxadiazol-5-yl)pyrimidin-4-yl)amino)ethyl)-5-(3-hydroxyprop-1-yn-1-yl)-3-phenylquinazolin-4(3H)-one], in data set [1], the AUClast stood at 26700 ± 6300 ng·h/mL, the Cmax worked out at 2480 ± 600 ng/mL and the Tmax is listed as 2.36 ± 1.2 h. Moreover, in data set [2] (male SD rats), the AUClast came out at 39800 ± 7600 ng·h/mL, the Cmax was found to be 5800 ± 850 ng/mL and the Tmax is on record as 1.67 ± 0.58 h.
By AUC(0-t) is commonly meant exposure summed from dosing to a finite time, without extrapolation to infinity. High values mean more exposure, low ones less exposure. As to `Cc1noc(-c2c(N)ncnc2N[C@@H](C)c2nc3cccc(C#CCO)c3c(=O)n2-c2ccccc2)n1` [(S)-2-(1-((6-amino-5-(3-methyl-1,2,4-oxadiazol-5-yl)pyrimidin-4-yl)amino)ethyl)-5-(3-hydroxyprop-1-yn-1-yl)-3-phenylquinazolin-4(3H)-one], the Tmax in data set [1] (male, Beagle, dog, plasma, po, read-out: Tmax) was determined as 3 ± 1.7 h; in data set [2] (male, SD, rat, plasma, po, read-out: Tmax), 1.33 ± 0.58 h. Further, the AUC(0-t) in data set [2] (male, SD, rat, plasma, po) was determined as 55200 ± 8700 ng·h/mL.
For `Cc1noc(-c2c(N)ncnc2N[C@@H](C)c2nc3cccc(C#CCO)c3c(=O)n2-c2ccccc2)n1` [crystal form A of phosphate salt, (S)-2-(1-((6-amino-5-(3-methyl-1,2,4-oxadiazol-5-yl)pyrimidin-4-yl)amino)ethyl)-5-(3-hydroxyprop-1-yn-1-yl)-3-phenylquinazolin-4(3H)-one], in data set [2] (male SD rats), the AUClast was determined as 37800 ± 6550 ng·h/mL, the Cmax worked out at 3950 ± 1500 ng/mL and the Tmax is on record as 1.50 ± 0.866 h.
For `Cc1noc(-c2c(N)ncnc2N[C@@H](C)c2nc3cccc(C#CCO)c3c(=O)n2-c2ccccc2)n1` [crystal form A of Sulfate salt, (S)-2-(1-((6-amino-5-(3-methyl-1,2,4-oxadiazol-5-yl)pyrimidin-4-yl)amino)ethyl)-5-(3-hydroxyprop-1-yn-1-yl)-3-phenylquinazolin-4(3H)-one] the same measures were 35300 ± 8920 ng·h/mL, 3310 ± 993 ng/mL and 1.17 ± 0.764 h.
For `Cc1noc(-c2c(N)ncnc2N[C@@H](C)c2nc3cccc(C#CCO)c3c(=O)n2-c2ccccc2)n1` [crystal form A of p-toluenesulfonate salt] [(S)-2-(1-((6-amino-5-(3-methyl-1,2,4-oxadiazol-5-yl)pyrimidin-4-yl)amino)ethyl)-5-(3-hydroxyprop-1-yn-1-yl)-3-phenylquinazolin-4(3H)-one], the appearance and purity result is given as “no obvious change” in data set [3] (condition of long-term stability test), “not significantly changed” in data set [4] (conditions of high humidity) and “not significantly changed” in data set [5] (conditions of high temperature). Further, the Purity in data set [3] (0 day) is listed as 99.27%; in data set [3] (3 months) it was 99.26%; in data set [3] (6 months) it was 99.23%; in data set [3] (9 months), 99.26%; in data set [3] (12 months) it was 99.27%; in data set [3] (18 months), 99.24%. Also, the Purity in data set [3] (24 months) worked out at 99.24%; in data set [4] (0 day), 99.78%; in data set [4] (setting [6]), 99.69%; in data set [4] (setting [7]), 99.69%; in data set [4] (setting [8]) it was 99.65%; in data set [4] (setting [9]), 99.75%. Moreover, the Purity in data set [4] (setting [10]) came out at 99.78%; in data set [4] (setting [11]) it was 99.81%; in data set [5] (0 day), 99.78%; in data set [5] (setting [13]) it was 99.74%; in data set [5] (setting [14]), 99.78%; in data set [5] (setting [15]), 99.69%. Besides, the Purity in data set [5] (setting [16]) was found to be 99.61%; in data set [5] (setting [17]) it was 99.44%; in data set [5] (setting [18]), 99.1%. For the same molecule, the Outward entry in data set [4] (0 day), in data set [4] (setting [6]), in data set [4] (setting [7]), in data set [4] (setting [8]), in data set [4] (setting [9]) and in data set [4] (setting [10]) was “Light yellow powder” throughout. Also, the Outward result in data set [4] (setting [11]), in data set [5] (0 day), in data set [5] (setting [13]), in data set [5] (setting [14]), in data set [5] (setting [15]) and in data set [5] (setting [16]) was “Light yellow powder” each time. Also, the Outward entry in data set [5] (setting [17]) and in data set [5] (setting [18]) was “Light yellow powder” in each case. Besides, the blood concentration result in data set [1] (setting [12]) is reported as “higher”. Further, the exposure entry in data set [1] (setting [12]) is given as “higher”. The same molecule registered an AUClast in data set [1] of 84200 ± 20000 ng·h/mL. For the same molecule, the Cmax in data set [1] amounted to 8400 ± 1800 ng/mL; in data set [2] (male SD rats), 6810 ± 1700 ng/mL.
On to `Cc1noc(-c2c(N)ncnc2N[C@@H](C)c2nc3cccc(C#CCO)c3c(=O)n2-c2ccccc2)n1` [crystal form A of bisulfate salt, (S)-2-(1-((6-amino-5-(3-methyl-1,2,4-oxadiazol-5-yl)pyrimidin-4-yl)amino)ethyl)-5-(3-hydroxyprop-1-yn-1-yl)-3-phenylquinazolin-4(3H)-one], for which, in data set [2] (male SD rats), the AUClast was 40600 ± 183 ng·h/mL, the Cmax stood at 4080 ± 375 ng/mL and the Tmax is on record as 1.50 ± 0.866 h.
